US11214594B2, “Antimicrobial peptide having synergistic antibacterial effect with antibiotics on multidrug resistant bacteria, and use thereof” (priority 2016, dated 2022)
Values after ≈ are worked out from the molar mass of the structure shown. Where a SMILES comes first, the peptide text is derived from it.

Experiments:
[1] = system: MDRAB 12036; assay type: cell-based, Acinetobacter baumannii
Summary of the method: (§1)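 Broth microdilution in MH medium: strains diluted to 2×10^6 CFU were mixed with equal volumes of twofold serial peptide dilutions in MH medium. MIC was taken as the lowest peptide concentration preventing bacterial growth.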

[2] = system: MRSA 3126; assay type: cell-based, Staphylococcus aureus; conditions: 3126
Summary of the method: as §1

[3] = system: MRSA 3114; assay type: cell-based, Staphylococcus aureus; conditions: 3114
Summary of the method: as §1

[4] = system: P. aeruginosa; assay: microbe, parasite or virus in culture; assay type: cell-based, Pseudomonas aeruginosa
Summary of the method: as §1

[5] = system: MDRST 8009; assay type: cell-based, Salmonella typhimurium; conditions: agent alone
Summary of the method: as §1

[6] = system: MDREC 1229; assay: MIC of antibiotic during combined treatment with antimicrobial peptide; assay type: cell-based, Escherichia coli
Summary of the method: (§2)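 Antibiotic MIC came from antibiotic dilutions added to bacteria (2×10^6 CFU/ml, MH medium) already combined with peptide serially diluted 2:1 from its own MIC. Swapping the roles of the two agents gave the peptide MIC.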

[7] = system: S. typhimurium; assay: microbe, parasite or virus in culture; assay type: cell-based, Salmonella typhimurium
Summary of the method: as §1

[8] = system: MDREC 1229; assay: microbe, parasite or virus in culture; assay type: cell-based, Escherichia coli
Summary of the method: as §1

[9] = system: E. coli; assay: microbe, parasite or virus in culture; assay type: cell-based, Escherichia coli
Summary of the method: as §1

[10] = system: S. aureus; assay: microbe, parasite or virus in culture; assay type: cell-based, Staphylococcus aureus
Summary of the method: as §1

[11] = system: E. coli; assay: MIC of antibiotic during combined treatment with antimicrobial peptide; assay type: cell-based, Escherichia coli; conditions: for Antibiotic MIC, Erythromycin / Antibiotic MIC, Linezolid / Antibiotic MIC, Vancomycin: E. coli
Summary of the method: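 Antibiotic diluted in MH medium, dispensed per well with peptide; setup repeated with roles reversed; MIC read per combination.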

[12] = system: A. baumannii; assay: MIC of antimicrobial peptide during combined treatment with antibiotic; assay type: cell-based, Acinetobacter baumannii
Summary of the method: as §2

[13] = system: MDRAB 12035; assay: as above; assay type: cell-based, Acinetobacter baumannii
Summary of the method: as §2

[14] = system: MDRST 8007; assay: Minimal inhibitory concentration (MIC), single agent; assay type: cell-based, Salmonella typhimurium; conditions: agent alone
Summary of the method: as §1

[15] = system: MDREC 1238; assay type: cell-based, Escherichia coli
Summary of the method: as §1

[16] = system: S. epidermidis; assay: microbe, parasite or virus in culture; assay type: cell-based, Staphylococcus epidermidis
Summary of the method: as §1

[17] = peptide treatment concentration 1 μg/ml
[18] = peptide treatment concentration 2 μg/ml
[19] = peptide treatment concentration 4 μg/ml
[20] = peptide treatment concentration 6 μg/ml
[21] = peptide treatment concentration 8 μg/ml
[22] = peptide treatment concentration 16 μg/ml
[23] = peptide treatment concentration 32 μg/ml
[24] = peptide treatment concentration 64 μg/ml
[25] = erythromycin 4 μg/ml (Conc./MIC 1/8)
[26] = erythromycin 8 μg/ml (Conc./MIC 1/4)
[27] = erythromycin 16 μg/ml (Conc./MIC 1/2)
[28] = erythromycin 32 μg/ml (Conc./MIC 1)
[29] = vancomycin 512 μg/ml (Conc./MIC 1/2)
[30] = vancomycin 1024 μg/ml (Conc./MIC 1)

SMILES: CC[C@H](C)[C@H](NC(=O)[C@H](CCCCN)NC(=O)[C@H](Cc1c[nH]c2ccccc12)NC(=O)[C@@H](N)CCCNC(=N)N)C(=O)N[C@@H](Cc1ccccc1)C(=O)N[C@@H](CCCCN)C(=O)N[C@@H](CCCCN)C(=O)N[C@H](C(=O)N1CCC[C@H]1C(=O)N[C@@H](CCCCN)C(=O)N[C@@H](CC(C)C)C(=O)N[C@@H](CC(C)C)C(=O)N[C@@H](Cc1c[nH]cn1)C(=O)N[C@@H](CO)C(=O)N[C@@H](CC(C)C)C(=O)N[C@@H](CCCCN)C(=O)N[C@@H](CCCCN)C(=O)N[C@@H](Cc1c[nH]c2ccccc12)C(N)=O)[C@@H](C)CC [PapMA-10, RWK IFK KIP KLL HSL KKW-NH2] (H-RWKIFKKIPKLLHSLKKW-NH2; N-terminus assumed)
- Minimal inhibitory concentration MIC [1]: 32 µg/mL (≈ 13.6 µM)
- Minimal inhibitory concentration MIC [2]: >128 µg/mL
- Minimal inhibitory concentration MIC [3]: >128 µg/mL
- Minimal inhibitory concentration MIC [4]: 8 µg/mL (≈ 3.41 µM)
- Minimal inhibitory concentration MIC [5]: 32 µg/mL (≈ 13.6 µM)
- Antibiotic MIC, Erythromycin [6, 17]: >128 µg/mL
- Antibiotic MIC, Linezolid [6, 17]: >128 µg/mL
- Antibiotic MIC, Vancomycin [6, 17]: >128 µg/mL
- Antibiotic MIC, Erythromycin [6, 18]: 64 µg/mL
- Antibiotic MIC, Linezolid [6, 18]: >128 µg/mL
- Antibiotic MIC, Vancomycin [6, 18]: >128 µg/mL
- Antibiotic MIC, Erythromycin [6, 19]: 16 µg/mL
- Antibiotic MIC, Linezolid [6, 19]: 128 µg/mL
- Antibiotic MIC, Vancomycin [6, 19]: >128 µg/mL
- Antibiotic MIC, Erythromycin [6, 20]: 8 µg/mL
- Antibiotic MIC, Linezolid [6, 20]: 64 µg/mL
- Antibiotic MIC, Vancomycin [6, 20]: >128 µg/mL
- Antibiotic MIC, Erythromycin [6, 21]: 2 µg/mL
- Antibiotic MIC, Linezolid [6, 21]: 64 µg/mL
- Antibiotic MIC, Vancomycin [6, 21]: 128 µg/mL
- Antibiotic MIC, Erythromycin [6, 22]: 1 µg/mL
- Antibiotic MIC, Linezolid [6, 22]: 16 µg/mL
- Antibiotic MIC, Vancomycin [6, 22]: 32 µg/mL
- Antibiotic MIC, Erythromycin [6, 23]: 0.25 µg/mL
- Antibiotic MIC, Linezolid [6, 23]: 8 µg/mL
- Antibiotic MIC, Vancomycin [6, 23]: 16 µg/mL
- Antibiotic MIC, Erythromycin [6, 24]: 0 µg/mL
- Antibiotic MIC, Linezolid [6, 24]: 0 µg/mL
- Antibiotic MIC, Vancomycin [6, 24]: 0 µg/mL
- Minimal inhibitory concentration MIC [7]: 16 µg/mL (≈ 6.81 µM)
- Minimal inhibitory concentration MIC [8]: 64 µg/mL (≈ 27.2 µM)
- Minimal inhibitory concentration MIC ([9]; 16 h): 32 µg/mL (≈ 13.6 µM)
- Antibacterial activity relative to PapMA-1 ([9]; E. coli): at least twice as high
- Minimal inhibitory concentration MIC [10]: >128 µg/mL
- Synergistic effect of antibacterial activity with existing antibiotics compared with PapMA-1 ([11]; E. coli and MDREC1229): level similar to that of the PapMA-1 peptide
- Antibiotic MIC, Erythromycin ([11]; erythromycin combined with peptide at 1 μg/ml): 128 µg/mL
- Antibiotic MIC, Erythromycin ([11]; erythromycin combined with peptide at 2 μg/ml): 64 µg/mL
- Antibiotic MIC, Erythromycin ([11]; erythromycin combined with peptide at 4 μg/ml): 32 µg/mL
- Antibiotic MIC, Erythromycin ([11]; erythromycin combined with peptide at 6 μg/ml): 8 µg/mL
- Antibiotic MIC, Erythromycin ([11]; erythromycin combined with peptide at 8 μg/ml): 0.5 µg/mL
- Antibiotic MIC, Erythromycin ([11]; erythromycin combined with peptide at 16 μg/ml): 0.25 µg/mL
- Antibiotic MIC, Erythromycin ([11]; erythromycin combined with peptide at 32 μg/ml): 0 µg/mL
- Antibiotic MIC, Erythromycin ([11]; erythromycin combined with peptide at 64 μg/ml): 0 µg/mL
- Antibiotic MIC, Linezolid ([11]; linezolid combined with peptide at 1 μg/ml): >128 µg/mL
- Antibiotic MIC, Linezolid ([11]; linezolid combined with peptide at 2 μg/ml): >128 µg/mL
- Antibiotic MIC, Linezolid ([11]; linezolid combined with peptide at 4 μg/ml): 128 µg/mL
- Antibiotic MIC, Linezolid ([11]; linezolid combined with peptide at 6 μg/ml): 64 µg/mL
- Antibiotic MIC, Linezolid ([11]; linezolid combined with peptide at 8 μg/ml): 8 µg/mL
- Antibiotic MIC, Linezolid ([11]; linezolid combined with peptide at 16 μg/ml): 4 µg/mL
- Antibiotic MIC, Linezolid ([11]; linezolid combined with peptide at 32 μg/ml): 0 µg/mL
- Antibiotic MIC, Linezolid ([11]; linezolid combined with peptide at 64 μg/ml): 0 µg/mL
- Antibiotic MIC, Vancomycin ([11]; vancomycin combined with peptide at 1 μg/ml): >128 µg/mL
- Antibiotic MIC, Vancomycin ([11]; vancomycin combined with peptide at 2 μg/ml): >128 µg/mL
- Antibiotic MIC, Vancomycin ([11]; vancomycin combined with peptide at 4 μg/ml): 64 µg/mL
- Antibiotic MIC, Vancomycin ([11]; vancomycin combined with peptide at 6 μg/ml): 32 µg/mL
- Antibiotic MIC, Vancomycin ([11]; vancomycin combined with peptide at 8 μg/ml): 16 µg/mL
- Antibiotic MIC, Vancomycin ([11]; vancomycin combined with peptide at 16 μg/ml): 2 µg/mL
- Antibiotic MIC, Vancomycin ([11]; vancomycin combined with peptide at 32 μg/ml): 0 µg/mL
- Antibiotic MIC, Vancomycin ([11]; vancomycin combined with peptide at 64 μg/ml): 0 µg/mL
- Peptide MIC during treatment with antibiotic [12, 25]: 8 µg/mL
- Peptide MIC during treatment with antibiotic [12, 26]: 4 µg/mL
- Peptide MIC during treatment with antibiotic [12, 27]: 2 µg/mL
- Peptide MIC during treatment with antibiotic [12, 28]: 0 µg/mL
- Peptide MIC during treatment with antibiotic ([12]; linezolid 32 μg/ml (Conc./MIC 1/8)): 8 µg/mL
- Peptide MIC during treatment with antibiotic ([12]; linezolid 64 μg/ml (Conc./MIC 1/4)): 4 µg/mL
- Peptide MIC during treatment with antibiotic ([12]; linezolid […] (Conc./MIC 1)): 0 µg/mL
- Peptide MIC during treatment with antibiotic ([12]; linezolid […] (Conc./MIC 1/2)): 4 µg/mL
- Peptide MIC during treatment with antibiotic [12, 29]: 1 µg/mL
- Peptide MIC during treatment with antibiotic [12, 30]: 0 µg/mL
- Peptide MIC during treatment with antibiotic ([12]; vancomycin […] (Conc./MIC 1/4)): 1 µg/mL
- Peptide MIC during treatment with antibiotic ([12]; vancomycin […] (Conc./MIC 1/8)): 4 µg/mL
- Peptide MIC during treatment with erythromycin [13, 25]: 16 µg/mL
- Peptide MIC during treatment with erythromycin [13, 26]: 8 µg/mL
- Peptide MIC during treatment with erythromycin [13, 27]: 4 µg/mL
- Peptide MIC during treatment with erythromycin [13, 28]: 0 µg/mL
- Peptide MIC during treatment with linezolid ([13]; linezolid 64 μg/ml (Conc./MIC 1/8)): 4 µg/mL
- Peptide MIC during treatment with linezolid ([13]; linezolid 512 μg/ml (Conc./MIC 1)): 0 µg/mL
- Peptide MIC during treatment with linezolid ([13]; linezolid […] (Conc./MIC 1/2)): 2 µg/mL
- Peptide MIC during treatment with linezolid ([13]; linezolid […] (Conc./MIC 1/4)): 2 µg/mL
- Peptide MIC during treatment with vancomycin [13, 29]: 2 µg/mL
- Peptide MIC during treatment with vancomycin [13, 30]: 1 µg/mL
- Peptide MIC during treatment with vancomycin ([13]; vancomycin […] (Conc./MIC 1/4)): 4 µg/mL
- Peptide MIC during treatment with vancomycin ([13]; vancomycin […] (Conc./MIC 1/8)): 4 µg/mL
- Minimal inhibitory concentration MIC [14]: 32 µg/mL (≈ 13.6 µM)
- Minimal inhibitory concentration MIC [15]: 64 µg/mL (≈ 27.2 µM)
- Minimal inhibitory concentration MIC [16]: >128 µg/mL
